Data reported in patent US6524585B1, “Indolicidin analogs and methods of using same” (The Regents of the University of California, priority 1998, dated 2003).
“Also recorded” adds a separate entry of the source. Non-standard residues stand in square brackets, D forms with d. No end group written: not given here. hSer = N[C@@H](CCO)C(=O)O

Legend:
Format in all cases: cell-based
[1] = tested on: microorganisms; test: antimicrobial activity, microbicidal or microbial inhibition assays (overall statements); details: overall statement, microorganism not specified
Experimental: (§1) The antimicrobial activity of the indolicidin analogs was determined using microbicidal or microbial inhibition assays. The indolicidin analogs initially were characterized using a microbial inhibition method, including a modified plate diffusion assay (Hultmark et al., EMBO J. 2:571-573 (1983); Lehrer et al., J. Immunol. Meth. 137:167-173 (1991), each of which is incorporated herein by reference).
(§2) Nutrient-containing agar (or agarose) plates were seeded with a selected target microorganism and peptide samples (5-10 μl) were placed into small wells formed in the solid medium. Following an initial incubation interval of 1 to 4 hr, the well-containing layer was overlayed with enriched (2× normal) solid medium in order to support microbial growth outside the perimeter of inhibition. After overnight incubation at 30° C. to 37° C., the antimicrobial activity was quantitated by measuring the clear zones around each well (zone of inhibition).
Microbicidal activity was measured by first incubating the target organism with an indolicidin analog in an aqueous suspension, then plating the suspension to quantitate surviving microorganisms. Cultures were grown to mid log phase in an appropriate medium, harvested, washed, and resuspended to 1-2×10^7 colony forming units (CFU) per ml. To conserve peptide, the incubation volume usually was 0.05 ml, with the final cell concentration being 1-2×10^6CFU/ml. Peptide stock solutions, usually made up in 0.01% acetic acid, were diluted in the incubation buffer to a final concentration of 1 μg/ml to 100 μg/ml, and the incubation was initiated by addition of an appropriate volume of the bacterial or fungal stock suspension to the prewarmed (37° C.) peptide-buffer mixture. At timed intervals, 50 μl or 100 μl samples were removed and diluted serially, then plated on nutrient-containing agar plates. Killing activity was quantitated by determining the reduction in CFU relative to appropriate control incubations.

[2] = tested on: fungi such as Cryptococcus; test: antimicrobial activity against fungi
[3] = tested on: Staphylococccus aureus; test: agar diffusion assay (zone of inhibition); details: S. aureus
Experimental: as §1, §2

Row | Substance | antimicrobial activity [1] | antimicrobial activity against fungi such as Cryptococcus [2] | antimicrobial activity (growth inhibition, zone of inhibition) [3]
1 | Leu-Pro-Trp-Lys-Trp-Pro-Trp-Trp-Pro-Trp-Arg-Arg-NH2 (LPWKWPWWPWRR-NH2) [Indol 2-13] | broad spectrum antimicrobial activity; also recorded: exhibits antimicrobial activity |  | 
2 | Pro-Trp-Lys-Trp-Pro-Trp-Trp-Pro-Trp-Arg-NH2 (PWKWPWWPWR-NH2) [Indol 3-12] |  | substantial antimicrobial activity | 
3 | Lys-Trp-Pro-Trp-Trp-Pro-Trp-Arg-NH2 (KWPWWPWR-NH2) [Indol 5-12] |  | substantial antimicrobial activity | 
4 | [H2N-]Ile-Leu-Pro-Trp-Lys-Trp-Pro-Trp-Trp-Pro-Trp-Arg-Arg-Hse (ILPWKWPWWPWRRX; C-terminal homoserine; MOD_RES (14) Xaa is homoserine (Hse).) [Indol(1-13)-Hse] | have antimicrobial activity |  | antimicrobial activity equivalent to that of synthesized Indol 1-13
5 | Pro-Trp-Lys-Trp-Pro-Trp-Trp-Pro-Trp-Arg-Arg-NH2 (PWKWPWWPWRR-NH2) [Indol 3-13] | broad spectrum antimicrobial activity; also recorded: exhibits antimicrobial activity |  | 
6 | Lys-Trp-Pro-Trp-Trp-Pro-Trp-Arg-Arg-NH2 (KWPWWPWRR-NH2) [Indol 5-13] | broad spectrum antimicrobial activity; also recorded: exhibits antimicrobial activity |  | 
7 | Trp-Lys-Trp-Pro-Trp-Trp-Pro-Trp-Arg-Arg-NH2 (WKWPWWPWRR-NH2) [Indol 4-13] | broad spectrum antimicrobial activity; also recorded: exhibits antimicrobial activity |  | 
8 | Trp-Lys-Trp-Pro-Trp-Trp-Pro-Trp-Arg-NH2 (WKWPWWPWR-NH2) [Indol 4-12] |  | substantial antimicrobial activity | 
9 | Trp-Pro-Trp-Trp-Pro-Trp-Arg-NH2 (WPWWPWR-NH2) [Indol 6-12] |  | substantial antimicrobial activity | 
10 | Leu-Pro-Phe-Lys-Phe-Pro-Phe-Phe-Pro-Phe-Arg-Arg-NH2 (LPFKFPFFPFRR-NH2) [Indol 2-13/F] | exhibits antimicrobial activity |  | 
11 | Indol 1-13/F-Hse: Indol 1-13/F peptide with a carboxy terminal homoserine, produced by cyanogen bromide cleavage (ILPFKFPFFPFRR[hSer]) | have antimicrobial activity |  | 
